The values below come from PMC6502434, “The arginine sensing and transport binding sites are distinct in the human pathogen Leishmania” (PLoS Neglected Tropical Diseases, 2019).

The target of the test is T1, LdAAP3 (Leishmania donovani, UniProt Q86G79).
T1 construct: native transporter in intact mid-log promastigotes, not overexpressed; no construct
T1 sequence (Q86G79 1-480): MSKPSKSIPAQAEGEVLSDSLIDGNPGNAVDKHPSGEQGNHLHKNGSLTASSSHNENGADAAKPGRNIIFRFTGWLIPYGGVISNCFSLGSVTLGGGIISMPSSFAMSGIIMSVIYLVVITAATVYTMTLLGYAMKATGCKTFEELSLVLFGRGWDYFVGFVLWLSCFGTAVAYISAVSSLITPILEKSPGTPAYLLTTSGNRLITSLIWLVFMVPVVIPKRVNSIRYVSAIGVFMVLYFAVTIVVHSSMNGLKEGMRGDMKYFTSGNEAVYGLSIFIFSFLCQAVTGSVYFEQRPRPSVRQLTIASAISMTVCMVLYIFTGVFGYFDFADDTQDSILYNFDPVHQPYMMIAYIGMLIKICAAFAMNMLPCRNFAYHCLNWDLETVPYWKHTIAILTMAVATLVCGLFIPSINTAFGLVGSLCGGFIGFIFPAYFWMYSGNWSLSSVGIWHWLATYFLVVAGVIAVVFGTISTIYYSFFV
The test is described as follows: inhibition of [3H]arginine uptake by intact promastigotes, rapid filtration. Type of test: cell-based. As to conditions: read-out: Percent arginine transport inhibition. An excerpt: inhibition of [3H]arginine uptake by intact promastigotes, rapid filtration on LdAAP3

The structures appear in SMILES notation.

The term inhibition denotes how much of the control response was suppressed. Take `N=C(N)NOCC[C@H](N)C(=O)O` [compound 4, Canavanine]: the inhibition at 500 µM stood at 40%.

`N=C(N)c1ccc(OCCCCCOc2ccc(C(=N)N)cc2)cc1` [compound 2, Pentamidine]: the inhibition at 100 µM worked out at 38%.

As to `CNC(=N)NCCC[C@H](N)C(=O)O` [compound 3, N-Methyl L-Arginine Acetate], the inhibition at 1000 µM was found to be 66%.

As for `NC(=O)NCCC[C@H](N)C(=O)O` [compound 9, L-citrulline], the inhibition at 1000 µM worked out at 10%.
